Laboratory results: PubChem BioAssay AID180 (DTP/NCI, 2004)
“And” between values parts separate entries of the source, which are not always exact repeats. Equal values may be shown once.

System: BDF1 mice, Adenocarcinoma 755 s.c., tumor weight T/C
Experiment: NCI In Vivo Anticancer Drug Screen. Data for tumor model Adenocarcinoma 755 (subcutaneous) in B6D2F1 (BDF1) mice
Conditions: endpoint: mean tumor weight, higher = larger tumour
In short: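 Transplantable tumor implanted; mice dosed with compound or vehicle; survival or tumor size recorded; ratio of treated to vehicle control reported.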

[1] = dose: 50.0 mg/kg/injection, schedule: Q01DX011 (ip), vehicle: carboxymethylcellulose (CMC)
[2] = dose: 15.0 mg/kg/injection, schedule: Q01DX011 (ip), vehicle: carboxymethylcellulose (CMC)
[3] = dose: 15.0 mg/kg/injection, schedule: Q01DX011 (ip), vehicle: methylcellulose (MC)
[4] = dose: 30.0 mg/kg/injection, schedule: Q01DX011 (ip), vehicle: methylcellulose (MC)
[5] = dose: 60.0 mg/kg/injection, schedule: Q01DX011 (ip), vehicle: methylcellulose (MC)
[6] = dose: 120.0 mg/kg/injection, schedule: Q01DX011 (ip), vehicle: methylcellulose (MC)
[7] = dose: 25.0 mg/kg/injection, schedule: Q01DX011 (ip), vehicle: carboxymethylcellulose (CMC)
[8] = dose: 100.0 mg/kg/injection, schedule: Q01DX011 (ip), vehicle: carboxymethylcellulose (CMC)
[9] = dose: 200.0 mg/kg/injection, schedule: Q01DX011 (ip), vehicle: carboxymethylcellulose (CMC)
[10] = dose: 1.25 mg/kg/injection, schedule: Q01DX011 (ip), vehicle: carboxymethylcellulose (CMC)
[11] = dose: 2.5 mg/kg/injection, schedule: Q01DX011 (ip), vehicle: carboxymethylcellulose (CMC)
[12] = dose: 10.0 mg/kg/injection, schedule: Q01DX011 (ip), vehicle: carboxymethylcellulose (CMC)

With `Nc1ncnc2nc(/N=N/SCCC(=O)O)[nH]c12` the T/C (dose: 37.5 mg/kg/injection, schedule: Q01DX011 (ip), vehicle: saline) was 205 % of control, the T/C (dose: 75.0 mg/kg/injection, schedule: Q01DX011 (ip), vehicle: saline) was 123 % of control and the T/C (dose: 150.0 mg/kg/injection, schedule: Q01DX011 (ip), vehicle: saline) was 56 % of control.

In the case of `O=C(OCC1OC(n2cnc3c(=S)nc[nH]c32)C(OC(=O)c2ccc(Cl)cc2)C1OC(=O)c1ccc(Cl)cc1)c1ccc(Cl)cc1` (configuration not stated), the T/C [1] is reported as 85 % of control and the T/C (dose: 400.0 mg/kg/injection, schedule: Q01DX011 (ip), vehicle: carboxymethylcellulose (CMC)) is reported as 1 % of control and 5 % of control.

With `CC(=O)OCC(=O)[C@@]1(O)CC[C@H]2[C@@H]3C=C(C)C4=CC(=O)CC[C@]4(C)[C@H]3[C@@H](O)C[C@@]21C` the T/C (dose: 11.2 mg/kg/injection, schedule: Q01DX011 (sc), vehicle: steriod suspending solution) was 36 % of control and 57 % of control, the T/C (dose: 22.5 mg/kg/injection, schedule: Q01DX011 (sc), vehicle: steriod suspending solution) was 42 % of control and 50 % of control and the T/C (dose: 45.0 mg/kg/injection, schedule: Q01DX011 (sc), vehicle: steriod suspending solution) was 23 % of control and 24 % of control. The T/C (dose: 90.0 mg/kg/injection, schedule: Q01DX011 (sc), vehicle: steriod suspending solution) was 15 % of control and 16 % of control and the T/C (dose: 180.0 mg/kg/injection, schedule: Q01DX011 (sc), vehicle: steriod suspending solution) was 10 % of control.

`Nc1nc(=S)c2ncn(C3CCCO3)c2[nH]1` (configuration not stated) was tested, and the T/C (dose: 0.7 mg/kg/injection, schedule: Q01DX011 (ip), vehicle: carboxymethylcellulose (CMC)) was 71 % of control, the T/C (dose: 1.5 mg/kg/injection, schedule: Q01DX011 (ip), vehicle: carboxymethylcellulose (CMC)) was 60 % of control and the T/C (dose: 3.0 mg/kg/injection, schedule: Q01DX011 (ip), vehicle: carboxymethylcellulose (CMC)) was 38 % of control. The T/C (dose: 7.5 mg/kg/injection, schedule: Q01DX011 (ip), vehicle: carboxymethylcellulose (CMC)) was 2 % of control and the T/C [2] was 2 % of control.

For `Nc1nc(I)c2[nH]cnc2n1`, the T/C [3] was 52 % of control, the T/C [4] was 109 % of control and the T/C [5] was 41 % of control. For the same compound, the T/C [6] was 44 % of control.

For `Cc1cc(O)c(C(C)C)cc1S(=O)(=O)O` (tested in a mixture with another compound), the T/C [7] was 78 % of control, the T/C (dose: 25.0 mg/kg/injection, schedule: Q01DX011 (ip), vehicle: other) was 32 % of control and the T/C [1] was 53 % of control. For the same compound, the T/C (dose: 50.0 mg/kg/injection, schedule: Q01DX011 (ip), vehicle: other) was 83 % of control, the T/C [8] was 49 % of control and the T/C (dose: 100.0 mg/kg/injection, schedule: Q01DX011 (ip), vehicle: other) was 44 % of control. For the same compound, the T/C [9] was 42 % of control and the T/C (dose: 200.0 mg/kg/injection, schedule: Q01DX011 (ip), vehicle: other) was 7 % of control.

For `Nc1nc(SCc2ccncc2)c2[nH]cnc2n1`, the T/C (dose: 1.25 mg/kg/injection, schedule: Q01DX011 (ip), vehicle: methylcellulose (MC)) was 71 % of control, the T/C (dose: 2.5 mg/kg/injection, schedule: Q01DX011 (ip), vehicle: methylcellulose (MC)) was 41 % of control and the T/C (dose: 5.0 mg/kg/injection, schedule: Q01DX011 (ip), vehicle: methylcellulose (MC)) was 31 % of control. For the same compound, the T/C (dose: 10.0 mg/kg/injection, schedule: Q01DX011 (ip), vehicle: methylcellulose (MC)) was 9 % of control and 12 % of control and the T/C (dose: 20.0 mg/kg/injection, schedule: Q01DX011 (ip), vehicle: methylcellulose (MC)) was 3 % of control.

`c1nc(SC2CCCC2)c2[nH]cnc2n1` was tested, and the T/C (dose: 0.62 mg/kg/injection, schedule: Q01DX011 (ip), vehicle: carboxymethylcellulose (CMC)) was 76 % of control, the T/C (dose: 0.62 mg/kg/injection, schedule: Q01DX011 (oral), vehicle: carboxymethylcellulose (CMC)) was 93 % of control and the T/C [10] was 66 % of control. For the same compound, the T/C [11] was 45 % of control, the T/C (dose: 2.5 mg/kg/injection, schedule: Q01DX011 (oral), vehicle: carboxymethylcellulose (CMC)) was 62 % of control and the T/C (dose: 5.0 mg/kg/injection, schedule: Q01DX011 (oral), vehicle: carboxymethylcellulose (CMC)) was 6 % of control. The T/C (dose: 5.2 mg/kg/injection, schedule: Q01DX011 (ip), vehicle: carboxymethylcellulose (CMC)) was 59 % of control, the T/C [12] was 6 % of control and the T/C (dose: 10.0 mg/kg/injection, schedule: Q01DX011 (oral), vehicle: carboxymethylcellulose (CMC)) was 3 % of control. For the same compound, the T/C (dose: 10.5 mg/kg/injection, schedule: Q01DX011 (ip), vehicle: carboxymethylcellulose (CMC)) was 20 % of control, the T/C (dose: 21.0 mg/kg/injection, schedule: Q01DX011 (ip), vehicle: carboxymethylcellulose (CMC)) was 6 % of control and 17 % of control and the T/C (dose: 21.0 mg/kg/injection, schedule: Q01DX011 (oral), vehicle: carboxymethylcellulose (CMC)) was 7 % of control. For the same compound, the T/C (dose: 42.0 mg/kg/injection, schedule: Q01DX011 (ip), vehicle: carboxymethylcellulose (CMC)) was 4 % of control, the T/C (dose: 42.5 mg/kg/injection, schedule: Q01DX011 (ip), vehicle: carboxymethylcellulose (CMC)) was 1 % of control and the T/C (dose: 84.0 mg/kg/injection, schedule: Q01DX011 (oral), vehicle: carboxymethylcellulose (CMC)) was 5 % of control. For the same compound, the T/C (dose: 85.0 mg/kg/injection, schedule: Q01DX011 (ip), vehicle: carboxymethylcellulose (CMC)) was 1 % of control and 2 % of control, the T/C (dose: 85.0 mg/kg/injection, schedule: Q01DX011 (oral), vehicle: carboxymethylcellulose (CMC)) was 2 % of control and the T/C (dose: 87.0 mg/kg/injection, schedule: Q01DX001 (ip), vehicle: carboxymethylcellulose (CMC)) was 43 % of control. The T/C (dose: 174.0 mg/kg/injection, schedule: Q01DX001 (ip), vehicle: carboxymethylcellulose (CMC)) was 44 % of control, the T/C (dose: 347.0 mg/kg/injection, schedule: Q01DX001 (ip), vehicle: carboxymethylcellulose (CMC)) was 25 % of control and the T/C (dose: 694.0 mg/kg/injection, schedule: Q01DX001 (ip), vehicle: carboxymethylcellulose (CMC)) was 24 % of control.

In the case of `O=C(Nc1cccc(C2=NCCN2)c1)c1ccc(N=Nc2ccc(C(=O)Nc3cccc(C4=NCCN4)c3)cc2)cc1`, the T/C [3] is reported as 81 % of control, the T/C [4] is reported as 70 % of control and the T/C [5] is reported as 68 % of control. The T/C [6] was 70 % of control.

For `CN(C)[C@@H]1C(=O)C(C(=O)NCNc2nc(=S)c3[nH]cnc3[nH]2)=C(O)[C@@]2(O)C(=O)C3=C(O)c4c(O)cccc4[C@@](C)(O)[C@H]3C[C@@H]12`, the T/C (dose: 4.0 mg/kg/injection, schedule: Q01DX011 (ip), vehicle: carboxymethylcellulose (CMC)) was 52 % of control, the T/C (dose: 8.0 mg/kg/injection, schedule: Q01DX011 (ip), vehicle: carboxymethylcellulose (CMC)) was 26 % of control and the T/C [2] was 2 % of control. The T/C (dose: 30.0 mg/kg/injection, schedule: Q01DX011 (ip), vehicle: carboxymethylcellulose (CMC)) was 1 % of control and the T/C [1] was 1 % of control.

With `C[C@]12CCC(=O)C=C1CC[C@H]1[C@@H]3CC[C@@]4(OCC4=O)[C@@]3(C)C[C@H](O)[C@@]12F` the T/C (dose: 75.0 mg/kg/injection, schedule: Q01DX011 (sc), vehicle: steriod suspending solution) was 13 % of control and the T/C (dose: 150.0 mg/kg/injection, schedule: Q01DX011 (sc), vehicle: steriod suspending solution) was 11 % of control.

In the case of `CCCCNc1cc(=O)[nH]c(N)n1`, the T/C (dose: 55.0 mg/kg/injection, schedule: Q01DX011 (ip), vehicle: methylcellulose (MC)) is reported as 53 % of control.

For `CC(CNC(=O)CCOS(C)(=O)=O)CNC(=O)CCOS(C)(=O)=O`, the T/C (dose: 6.25 mg/kg/injection, schedule: Q01DX011 (ip), vehicle: carboxymethylcellulose (CMC)) was 120 % of control, the T/C (dose: 12.5 mg/kg/injection, schedule: Q01DX011 (ip), vehicle: carboxymethylcellulose (CMC)) was 92 % of control and the T/C (dose: 14.0 mg/kg/injection, schedule: Q01DX011 (ip), vehicle: carboxymethylcellulose (CMC)) was 73 % of control. The T/C [7] was 111 % of control, the T/C (dose: 28.0 mg/kg/injection, schedule: Q01DX011 (ip), vehicle: carboxymethylcellulose (CMC)) was 108 % of control and the T/C [1] was 39 % of control. The T/C (dose: 57.0 mg/kg/injection, schedule: Q01DX011 (ip), vehicle: carboxymethylcellulose (CMC)) was 72 % of control, the T/C [8] was 15 % of control and the T/C (dose: 113.0 mg/kg/injection, schedule: Q01DX011 (ip), vehicle: carboxymethylcellulose (CMC)) was 20 % of control and 36 % of control. For the same compound, the T/C [9] was 2 % of control and the T/C (dose: 225.0 mg/kg/injection, schedule: Q01DX011 (ip), vehicle: carboxymethylcellulose (CMC)) was 4 % of control.

`COC12C(COC(N)=O)C3=C(C(=O)C(C)=C(N)C3=O)N1CC1C2N1C` (configuration not stated) was tested, and the T/C [10] was 62 % of control, the T/C [11] was 52 % of control and the T/C (dose: 5.0 mg/kg/injection, schedule: Q01DX011 (ip), vehicle: carboxymethylcellulose (CMC)) was 27 % of control. The T/C [12] was 3 % of control and 7 % of control.

With `CCCCN(C)N=Nc1ccc(CCC(=O)NN)cc1` the T/C (dose: 31.0 mg/kg/injection, schedule: Q01DX011 (ip), vehicle: carboxymethylcellulose (CMC)) was 19 % of control.

`CC(Cl)CN(Cc1cc(O)c(CN(CC(C)Cl)CC(C)Cl)cc1O)CC(C)Cl` (configuration not stated) was tested, and the T/C (dose: 125.0 mg/kg/injection, schedule: Q01DX011 (ip), vehicle: methylcellulose (MC)) was 58 % of control.
